Earlier results in US10434213B2, “Controlled delivery system” (Wake Forest University Health Sciences, priority 2010, dated 2019).
In brackets after ≈: the same amount, converted by molar mass.

Columns and labels:
[1] = tested on: S. aureus 29213; conditions: reported value
[2] = tested on: bone marrow; conditions: White and Olden 1991
[3] = tested on: IL-1, IL-2, TNF, GM-CSF and interferons; conditions: Newton 1989; Olden 1991
[4] = tested on: tumor cells; conditions: in vitro
[5] = tested on: colon cancer and melanoma cancers; conditions: combined with interferon, in vivo

| Minimum inhibitory concentration (MIC) [1] | SMILES | Bone marrow proliferation [2] | Production of multiple cytokines [3] | B- and T-cell immunity, natural killer T-cell and macrophage-induced destruction of tumor cells [4] | Anti-tumor activity [5] |
| --- | --- | --- | --- | --- | --- |
| 0.25 µg/mL (≈ 0.754 µM) | O=C(O)c1cn(C2CC2)c2cc(N3CCNCC3)c(F)cc2c1=O [ciprofloxacin] |  |  |  |  |
|  | O[C@H]1[C@H]2[C@H](O)CCCN2C[C@H]1O [Swainsonine] | capacity to stimulate bone marrow proliferation | stimulates | induces | direct anti-tumor activity |
